The subject of data set [1] is collagen-induced arthritis (CIA) mouse model. The data set can be described thus: Arthritis progression index in collagen-induced arthritis mouse model. The data set is classed as in vivo, DBA/1J mouse. The method, then: In Example 2, using a collagen-induced arthritis mouse model in the following document, a therapeutic effect of a PSP dimer or trimer for a representative inflammatory disease, rheumatoid arthritis was confirmed (Nat Protoc. 2007; 2(5):1269-75.).
A collagen-induced arthritis (CIA) mouse model was prepared as follows, as an autoimmune disease-based arthritis model with characteristics similar to human rheumatoid arthritis.
First, a bovine type II collagen (Chondrex Corporation, USA) and a Freund's complete adjuvant (Chondrex Corporation, USA) were mixed at a ratio of 1:1 and emulsified, and then 50 μl of the emulsified collagen solution was injected intradermally into the tail of a 6-week-old DBA/1J mouse to induce primary immunization. At two weeks after the primary immunization, the bovine type II collagen and the Freund's complete adjuvant were mixed at a ratio of 1:1 and emulsified, and then 50 μl of the emulsified collagen solution was injected intradermally into the tail of the mouse again to induce secondary immunization (boosting). After the secondary immunization, the peptide of the present invention (the PSP dimer (1 μmole) or the PSP trimer (1 μmole)) was administered intraperitoneally three times a week from the next day, and as a comparative experimental group, a PSP monomer-treated group and as a control (Vehicle control), a PBS-treated group were used, respectively. The preparation process of the collagen-induced arthritis mouse model and the administration time of the peptide were schematically illustrated in FIG. 1.
In order to investigate the development of arthritis progression according to the peptide treatment of the present invention, the deepening degree of arthritis with time was measured by evaluating an arthritis progression index. Two observers who were unaware of the specific experimental conditions evaluated progression of arthritis three times a week. In this case, the arthritis progression index was evaluated by 0 to 4 scores per leg according to an arthritis progression evaluation standard by Rossoliniec and the like in Table 2 below to be represented by a total of 0 to 16 scores (a sum of four legs), and thereafter, two observers calculated an average value of the evaluated results to digitize the severity of arthritis.
Methotrexate (MTX), one of drugs which are used as arthritis therapeutic agents in a current clinical practice, had excellent anti-inflammatory and arthritis therapeutic effects as an immunodepressant, but may have side effects such as toxicity to normal cells, oral ulcer, alopecia, interstitial pneumonia, bone marrow suppression, and the like. As a result, the methotrexate is known as a drug that needs to pay close attention after medication with sufficient medication counseling. In Example 2, the arthritis therapeutic effect with the peptide of the present invention and methotrexate (1 mg/kg) was evaluated and compared with the arthritic progression index by using the same method as Example 2-2.

Data set [2] is described as follows: Evaluation of toxicity: mortality and change in body weight after intraperitoneal administration. The data set is classed as in vivo. The conditions noted are these: individual mouse. The method, then:
In Example 3, in order to confirm the toxicity of the peptide of the present invention, the PSP dimer or the PSP trimer was intraperitoneally administered to mouse at various concentrations (0.1 μmole, 1 μmole, and 10 μmole), and then the mortality and a change in body weight of each mouse were measured. On the other hand, as a control, a non-administration group (Normal) and a PBS-treated group (PBS) were used.

Where “and” joins values, the source holds several entries; their conditions need not be identical. Equal values may be shown once. Ends that are not written are not given here.

As for `CN(Cc1cnc2nc(N)nc(N)c2n1)c1ccc(C(=O)N[C@@H](CCC(=O)O)C(=O)O)cc1` [MTX, methotrexate], the arthritis progression index in data set [1] (Table 6, day 14, comparison of PSP dimer with methotrexate (1 mg/kg), 0 to 16 scores) is given as 0.0; in data set [1] (Table 6, day 17, comparison with methotrexate (1 mg/kg)), 0.0; in data set [1] (Table 6, day 20, comparison with methotrexate (1 mg/kg)), 0.0; in data set [1] (Table 6, day 22, comparison with methotrexate (1 mg/kg)), 0.0; in data set [1] (Table 6, day 25, comparison with methotrexate (1 mg/kg)), 0.0; in data set [1] (Table 6, day 27, comparison with methotrexate (1 mg/kg)) it was 1.0. The arthritis progression index is given as 0.8 in data set [1] (Table 6, day 29, comparison with methotrexate (1 mg/kg)); 2.8 in data set [1] (Table 6, day 31, comparison with methotrexate (1 mg/kg)); 3.2 in data set [1] (Table 6, day 35, comparison with methotrexate (1 mg/kg)); 0.0 in data set [1] (Table 7, day 14, comparison of PSP trimer with methotrexate (1 mg/kg), 0 to 16 scores); 0.0 in data set [1] (Table 7, day 17, comparison with methotrexate (1 mg/kg)); 0.0 in data set [1] (Table 7, day 20, comparison with methotrexate (1 mg/kg)). For the same molecule, the arthritis progression index came to 0.0 in data set [1] (Table 7, day 22, comparison with methotrexate (1 mg/kg)); 0.0 in data set [1] (Table 7, day 25, comparison with methotrexate (1 mg/kg)); 1.0 in data set [1] (Table 7, day 27, comparison with methotrexate (1 mg/kg)); 0.8 in data set [1] (Table 7, day 29, comparison with methotrexate (1 mg/kg)); 2.8 in data set [1] (Table 7, day 31, comparison with methotrexate (1 mg/kg)); 3.2 in data set [1] (Table 7, day 35, comparison with methotrexate (1 mg/kg)).

Take PSPPSP [PSP dimer, PSPPSP]: the Body weight was 20.7 g and 20.2 g and 21.6 g and 21 g and 20.1 g and 20.9 g and 19.9 g in data set [2] (PSP dimer 0.1 μmol intraperitoneal, day 15); 20.7 g and 21.1 g (2×) and 22.7 g and 22.4 g and 21.2 g and 21.8 g in data set [2] (PSP dimer 0.1 μmol intraperitoneal, day 18); 23.3 g and 21.9 g and 23.5 g and 22.9 g and 21.4 g and 23.1 g and 22.3 g in data set [2] (PSP dimer 0.1 μmol intraperitoneal, day 22); 22.7 g and 21.4 g and 22.1 g and 23 g and 21.1 g and 22.5 g and 21.7 g in data set [2] (PSP dimer 0.1 μmol intraperitoneal, day 25); 23.2 g (2×) and 21.7 g (2×) and 22.7 g and 23.3 g and 19.5 g in data set [2] (PSP dimer 0.1 μmol intraperitoneal, day 29); 23.5 g and 22.1 g and 23.3 g and 22.7 g and 19.3 g and 23.9 g and 21 g in data set [2] (PSP dimer 0.1 μmol intraperitoneal, day 32). Also, the Body weight in data set [2] (PSP dimer 0.1 μmol intraperitoneal, day 36) was 23.7 g and 18.6 g (2×) and 22.4 g and 22.3 g and 24.2 g and 20.2 g; in data set [2] (PSP dimer 1 μmol intraperitoneal, day 18) it was 23.3 g and 20 g and 22.5 g and 22.1 g and 20.8 g and 21.8 g and 21.1 g; in data set [2] (PSP dimer 1 μmol intraperitoneal, day 22), 24.4 g and 20.7 g and 22.5 g (3×) and 23.2 g and 21.5 g; in data set [2] (PSP dimer 1 μmol intraperitoneal, day 25), 23.9 g and 19.6 g and 21.8 g and 22.9 g and 21.6 g and 22.3 g and 22.4 g; in data set [2] (PSP dimer 1 μmol intraperitoneal, day 29) it was 23.9 g and 20.1 g and 21.8 g and 23.4 g and 21.3 g and 22.7 g and 23.1 g; in data set [2] (PSP dimer 1 μmol intraperitoneal, day 36), 23 g (2×) and 20.7 g and 23.4 g and 21.4 g and 19.4 g and 24.5 g. For the same molecule, the Body weight in data set [2] (PSP dimer 10 μmol intraperitoneal, day 15) was determined as 19.5 g; in data set [2] (PSP dimer 10 μmol intraperitoneal, day 18), 20.8 g.

With PSPPSPPSP [PSP trimer, PSPPSPPSP], the Body weight in data set [2] (PSP trimer 0.1 μmol intraperitoneal, day 15) was 20.75 g (2×) and 20.64 g and 21.54 g and 19.43 g and 22.27 g and 21.68 g; in data set [2] (PSP trimer 0.1 μmol intraperitoneal, day 17), 21 g and 20.6 g and 21.5 g and 19.1 g and 22.3 g and 21.3 g and 21.7 g; in data set [2] (PSP trimer 0.1 μmol intraperitoneal, day 20), 21.2 g and 21.3 g and 20.8 g and 19.6 g and 22.9 g and 21.9 g and 21.7 g; in data set [2] (PSP trimer 0.1 μmol intraperitoneal, day 24), 22.2 g and 21.7 g and 22.6 g and 19.9 g and 23.8 g and 22.8 g and 21.9 g; in data set [2] (PSP trimer 0.1 μmol intraperitoneal, day 27), 21.3 g and 21.4 g and 22.7 g and 19.5 g and 23.6 g and 22.2 g and 21.8 g; in data set [2] (PSP trimer 0.1 μmol intraperitoneal, day 31), 20.3 g and 21.3 g and 21 g (2×) and 18.6 g and 24.3 g and 23.3 g. The Body weight in data set [2] (PSP trimer 0.1 μmol intraperitoneal, day 34) is 19.7 g and 20.5 g and 19.8 g and 18.1 g and 24.1 g and 23 g and 21.3 g; in data set [2] (PSP trimer 1 μmol intraperitoneal, day 15) it was 20.76 g and 21.15 g (2×) and 21.62 g and 21.02 g and 20.4 g and 19.02 g; in data set [2] (PSP trimer 1 μmol intraperitoneal, day 17), 21.5 g (2×) and 21.1 g and 22.2 g and 21.7 g and 21.3 g and 19.1 g; in data set [2] (PSP trimer 1 μmol intraperitoneal, day 20) it was 22.3 g and 21.6 g and 22.9 g and 22.1 g and 21.8 g and 20.8 g and 19.2 g; in data set [2] (PSP trimer 1 μmol intraperitoneal, day 24) it was 23.2 g and 22.6 g and 23.8 g and 22.7 g (2×) and 21.3 g and 20.2 g; in data set [2] (PSP trimer 1 μmol intraperitoneal, day 27), 22.3 g and 22.4 g and 23.8 g and 22.8 g and 22.6 g and 21.5 g and 19.8 g. In addition, the Body weight in data set [2] (PSP trimer 1 μmol intraperitoneal, day 31) was 21.4 g (2×) and 22.7 g and 22.8 g and 22.5 g and 21.7 g and 19.9 g; in data set [2] (PSP trimer 1 μmol intraperitoneal, day 34) it was 20.1 g and 22.6 g and 21.1 g and 19.9 g and 20.7 g and 22 g and 19.3 g; in data set [2] (PSP trimer 10 μmol intraperitoneal, day 15) it was 21.9 g; in data set [2] (PSP trimer 10 μmol intraperitoneal, day 17), 21.2 g.

(Values after patent US10913771B2, “Peptide for preventing or treating inflammatory diseases and use thereof” (KINE SCIENCES Co., Ltd., priority 2016, dated 2021).)
